Results taken from ChEMBL document CHEMBL3865792, “Antioxidant and antitumor activity of trolox, trolox succinate, and α-tocopheryl succinate conjugates with nitroxides” (Eur J Med Chem, 2016).

Key:
[1] = Ratio of IC50 for human RPMI8226 cells to concentration causing antioxidant activity in Salmonella typhimurium TA102 harboring […] mutant; type: functional, RPMI-8226
[2] = Cytotoxicity against human RPMI8226 cells assessed as reduction in cell viability at 300 uM after 72 hrs by MTT assay; type: functional; settings: RPMI-8226, 72 h
[3] = Cytotoxicity against human MT4 cells assessed as reduction in cell viability after 72 hrs by MTT assay; type: functional, cell-based; settings: MT4, 72 h
[4] = Ratio of IC50 for human HEPG2 cells to concentration causing antioxidant activity in Salmonella typhimurium TA102 harboring […] mutant; type: functional
[5] = Ratio of IC50 for human U937 cells to concentration causing antioxidant activity in Salmonella typhimurium TA102 harboring […] mutant; type: functional, U-937
[6] = Cytotoxicity against human RPMI8226 cells assessed as reduction in cell viability after 72 hrs by MTT assay; type: functional, cell-based; settings: RPMI-8226, 72 h
[7] = Cytotoxicity against human U937 cells assessed as reduction in cell viability after 72 hrs by MTT assay; type: functional, cell-based; settings: U-937, 72 h
[8] = Cytotoxicity against human MT4 cells assessed as reduction in cell viability at 300 uM after 72 hrs by MTT assay; type: functional; settings: MT4, 72 h
[9] = test system: Salmonella enterica subsp. enterica serovar Typhimurium; experiment: Antioxidant activity in Salmonella typhimurium TA102 harboring […] mutant assessed as inhibition of t-BuO2H-dependant mutant formation at 30 uM preincubated with compound followed by t-BuO2H addition after 48 hrs by Ames test; type: functional
[10] = Cytotoxicity against human CEM13 cells assessed as reduction in cell viability after 72 hrs by MTT assay; type: functional, cell-based; settings: CEM13, 72 h
[11] = Cytotoxicity against human MCF7 cells assessed as reduction in cell viability after 72 hrs by MTT assay; type: functional, cell-based; settings: MCF7, 72 h
[12] = Ratio of IC50 for human MT4 cells to concentration causing antioxidant activity in Salmonella typhimurium TA102 harboring […] mutant; type: functional
[13] = Cytotoxicity against human HepG2 cells assessed as reduction in cell viability after 72 hrs by MTT assay; type: functional, cell-based; settings: HepG2, 72 h
[14] = test system: Salmonella enterica subsp. enterica serovar Typhimurium; experiment: Antioxidant activity in Salmonella typhimurium TA102 harboring […] mutant assessed as inhibition of t-BuO2H-dependant mutant formation at 3 uM preincubated with compound followed by t-BuO2H addition after 48 hrs by Ames test; type: functional
[15] = Cytotoxicity against mouse LMTK cells assessed as reduction in cell viability after 72 hrs by MTT assay; type: toxicity
[16] = Cytotoxicity against human HepG2 cells assessed as reduction in cell viability at 300 uM after 72 hrs by MTT assay; type: functional; settings: HepG2, 72 h
[17] = test system: Salmonella enterica subsp. enterica serovar Typhimurium; experiment: Antioxidant activity in Salmonella typhimurium TA102 harboring […] mutant assessed as inhibition of t-BuO2H-dependant mutant formation at 0.3 uM preincubated with compound followed by t-BuO2H addition after 48 hrs by Ames test; type: functional
Salmonella typhimurium [18] = experiment: Genotoxicity in Salmonella typhimurium TA102 harboring […] mutant assessed as frequency of reversion from histidine auxotrophy to prototrophy at 30 mM after 48 hrs by Ames test (reference value: 209 +/- 10 No _unit); type: toxicity, organism-based; settings: salmonella enterica subsp. enterica serovar typhimurium, 30000 µM
[19] = Genotoxicity in Escherichia coli PQ37 expressing lacZ gene assessed as ratio of inducible beta-galactosidase activity to alkaline phosphatase activity at 30 mM after 2 hrs by SOS-chromotest relative to control; type: toxicity; settings: Escherichia coli PQ37 cells expressing lacZ gene, read-out: FC
[20] = Cytotoxicity against hamster AG17-1 cells assessed as reduction in cell viability at 300 uM after 72 hrs by MTT assay; type: toxicity, cell-based, Cricetulus griseus; settings: Chinese hamster, read-out: INH
[21] = Ratio of IC50 for human CEM13 cells to concentration causing antioxidant activity in Salmonella typhimurium TA102 harboring […] mutant; type: functional
[22] = Cytotoxicity against hamster AG17-1 cells assessed as reduction in cell viability after 72 hrs by MTT assay; type: toxicity, cell-based, Cricetulus griseus; settings: Chinese hamster
[23] = Cytotoxicity against human MCF7 cells assessed as reduction in cell viability at 300 uM after 72 hrs by MTT assay; type: functional; settings: MCF7, 72 h
[24] = Cytotoxicity against mouse LMTK cells assessed as reduction in cell viability at 300 uM after 72 hrs by MTT assay; type: toxicity; settings: read-out: INH
[25] = Ratio of IC50 for human MCF7 cells to concentration causing antioxidant activity in Salmonella typhimurium TA102 harboring […] mutant; type: functional
[26] = Cytotoxicity against human CEM13 cells assessed as reduction in cell viability at 300 uM after 72 hrs by MTT assay; type: functional; settings: CEM13, 72 h
Salmonella typhimurium [27] = experiment: Genotoxicity in Salmonella typhimurium TA102 harboring […] mutant assessed as frequency of reversion from histidine auxotrophy to prototrophy at 0.35 mM after 48 hrs by Ames test (reference value: 209 +/- 10 No _unit); type: toxicity, organism-based; settings: salmonella enterica subsp. enterica serovar typhimurium, 350 µM
[28] = Genotoxicity in Escherichia coli PQ37 expressing lacZ gene assessed as ratio of inducible beta-galactosidase activity to alkaline phosphatase activity at 1 mM after 2 hrs by SOS-chromotest relative to control; type: toxicity; settings: Escherichia coli PQ37 cells expressing lacZ gene, read-out: FC
[29] = Genotoxicity in Escherichia coli PQ37 expressing lacZ gene assessed as ratio of inducible beta-galactosidase activity to alkaline phosphatase activity at 3 mM after 2 hrs by SOS-chromotest relative to control; type: toxicity; settings: Escherichia coli PQ37 cells expressing lacZ gene, read-out: FC

In the case of Cc1c(C)c2c(c(C)c1OC(=O)CCC(=O)O)CCC(C)(C(=O)NC1CC(C)(C)N([O])C1(C)C)O2 (stereo not drawn), the Ratio [1] is reported as 100 - 1000, the inhibition at 300 µM [2] is reported as 28% and the IC50 [3] is reported as > 300 µM. The Ratio [4] was 100 - 1000, the Ratio [5] was 100 - 1000 and the IC50 [6] was > 300 µM. For the same molecule, the IC50 [7] was 163 µM, the inhibition at 300 µM [8] was 45% and the inhibition [9] was 33%. For the same molecule, the IC50 [10] was 205 µM, the IC50 [11] was > 300 µM and the Ratio [12] was 100 - 1000. For the same molecule, the IC50 [13] was > 300 µM, the inhibition [14] was 11% and the IC50 at 72 h [15] was > 300 µM. The inhibition at 300 µM [16] was 25%, the inhibition [17] was 6% and the Activity (Salmonella typhimurium [18]) was 221. For the same molecule, the fold induction at 2 h, 30000 µM [19] was 1.2, the cytotoxicity at 72 h, 300 µM [20] was 27% and the Ratio [21] was 100 - 1000. For the same molecule, the IC50 at 72 h [22] was > 300 µM, the inhibition at 300 µM [23] was 25% and the cytotoxicity at 72 h, 300 µM [24] was 0%. For the same molecule, the Ratio [25] was 100 - 1000.
With Cc1c(C)c2c(c(C)c1OC(=O)CCC(=O)O)CCC(C)(C(=O)NCC1CC(C)(C)N([O])C1(C)C)O2 (stereo not drawn) the Ratio [1] was 100 - 1000, the inhibition at 300 µM [2] was 22% and the IC50 [3] was > 300 µM. For the same molecule, the Ratio [4] was 100 - 1000, the Ratio [5] was 100 - 1000 and the IC50 [6] was > 300 µM. The IC50 [7] was 24 µM, the inhibition at 300 µM [8] was 46% and the inhibition [9] was 18%. For the same molecule, the IC50 [10] was > 300 µM, the IC50 [11] was > 300 µM and the Ratio [12] was 100 - 1000. For the same molecule, the IC50 [13] was > 300 µM, the inhibition at 300 µM [26] was 31% and the inhibition [14] was 22%. The IC50 at 72 h [15] was > 300 µM, the inhibition at 300 µM [16] was 18% and the inhibition [17] was 31%. For the same molecule, the Activity (Salmonella typhimurium [18]) was 205, the fold induction at 2 h, 30000 µM [19] was 1.3 and the cytotoxicity at 72 h, 300 µM [20] was 30%. For the same molecule, the Ratio [21] was 100 - 1000, the IC50 at 72 h [22] was > 300 µM and the inhibition at 300 µM [23] was 24%. The cytotoxicity at 72 h, 300 µM [24] was 0% and the Ratio [25] was 100 - 1000.
For CC(C)(C)OO [TERT-BUTYL HYDROPEROXIDE], the Activity (Salmonella typhimurium [27]) was 482 and the fold induction at 2 h, 1000 µM [28] was 11.6.
With Cc1c(C)c2c(c(C)c1OC(=O)CCC(=O)O)CCC(C)(C(=O)O)O2 (stereo not drawn) the IC50 [3] was 285 µM, the IC50 [6] was 63 µM and the IC50 [7] was 120 µM. It also gave an inhibition at 300 µM [8] of 34%, an inhibition [9] of 35% and an IC50 [10] of 191 µM. For the same molecule, the IC50 [11] was > 300 µM, the IC50 [13] was 242 µM and the inhibition [14] was 35%. For the same molecule, the IC50 at 72 h [15] was > 300 µM, the inhibition [17] was 35% and the Activity (Salmonella typhimurium [18]) was 216. The fold induction at 2 h, 30000 µM [19] was 1.1, the cytotoxicity at 72 h, 300 µM [20] was 27% and the IC50 at 72 h [22] was > 300 µM. For the same molecule, the inhibition at 300 µM [23] was 15% and the cytotoxicity at 72 h, 300 µM [24] was 7%.
Work on Cc1c(C)c2c(c(C)c1O)CC[C@@](C)(CCC[C@H](C)CCC[C@H](C)CCCC(C)C)O2 [ALPHA-TOCOPHEROL] yielded a fold induction at 2 h, 3000 µM [29] of 1.28, an inhibition at 300 µM [2] of 0% and an IC50 [3] of 165 µM. The IC50 [6] was > 300 µM, the IC50 [7] was 100 µM and the inhibition [9] was 15%. The IC50 [10] was > 300 µM, the IC50 [11] was > 300 µM and the IC50 [13] was > 300 µM. The inhibition at 300 µM [26] was 35%, the inhibition [14] was 13% and the IC50 at 72 h [15] was > 300 µM. It also gave an inhibition at 300 µM [16] of 0%, an inhibition [17] of 6% and an Activity (Salmonella typhimurium [18]) of 217. The cytotoxicity at 72 h, 300 µM [20] was 12%, the IC50 at 72 h [22] was > 300 µM and the inhibition at 300 µM [23] was 37%. The cytotoxicity at 72 h, 300 µM [24] was 28%.
Molecule Cc1c(C)c2c(c(C)c1O)CCC(C)(C(=O)O)O2 (stereo not drawn) [TROLOX] has a fold induction at 2 h, 3000 µM [29] of 1, an inhibition at 300 µM [2] of 0% and an IC50 [3] of 200 µM. For the same molecule, the IC50 [6] was > 300 µM, the IC50 [7] was 300 µM and the inhibition [9] was 4.7%. For the same molecule, the IC50 [10] was > 300 µM, the IC50 [11] was > 300 µM and the IC50 [13] was > 300 µM. For the same molecule, the inhibition at 300 µM [26] was 37%, the inhibition [14] was 14.5% and the IC50 at 72 h [15] was > 300 µM. For the same molecule, the inhibition at 300 µM [16] was 14%, the inhibition [17] was 8.8% and the Activity (Salmonella typhimurium [18]) was 230. The cytotoxicity at 72 h, 300 µM [20] was 0%, the IC50 at 72 h [22] was > 300 µM and the inhibition at 300 µM [23] was 5%. For the same molecule, the cytotoxicity at 72 h, 300 µM [24] was 0%.
